Biological target: Bile salt-activated lipase (Sus scrofa)
Assay: Inhibition of the Pancreatic Cholesterol Esterase from porcine

O=c1oc(Cl)ccc1CCC1CCCCC1 [6-Chloro-3-(2-cyclohexyl-ethyl)-pyran-2-one]
Ki: 25 nM

O=c1oc(Cl)ccc1CCCC1CCCCC1 [6-Chloro-3-(3-cyclohexyl-propyl)-pyran-2-one]
Ki: 60 nM

O=c1oc(Cl)ccc1CC1CCCCC1 [6-Chloro-3-cyclohexylmethyl-pyran-2-one]
Ki: 2200 nM
